In the supplement of paper PMC4862054:

Columns and labels:
CAL-51 [1] = settings: 72 h
Procedure: (§1)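 Drug sensitivity and resistance testing (DSRT) of breast cancer cell lines in 384-well plates, 5 concentrations in 10-fold dilutions over a compound-specific 10,000-fold range. After 72 h, cytotoxicity was read by CellTox Green fluorescence and viability by CellTiter-Glo luminescence (multiplexed), normalised to DMSO and benzethonium chloride controls. EC50 is the inflection point of the fitted dose-response curve (bottom asymptote free, so it can be relative for partial curves) and is censored at the highest tested concentration. Rows with DSS 0 (no meaningful response) were excluded.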

MDA-MB-468 [2] = settings: 72 h
Procedure: as §1

CAL-51 [3] = settings: 72 h; remark: listed apart in the source
Method in brief: (§2)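 A 20 µl suspension of breast cancer cells was placed in 384-well plates that already contained compound at 5 concentrations in 10-fold steps across a compound-specific 10,000-fold range, and the plates were left for 72 h. CellTox Green fluorescence at 485/520 nm gave cell death, and CellTiter-Glo luminescence, read after 10 min at room temperature, gave viability. Each plate was normalised to 0.1 % DMSO and a positive kill control. EC50 was fitted from the curves and censored at the top concentration.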

MDA-MB-468 [4] = settings: 72 h; remark: listed apart in the source
Method in brief: as §2

CAL-51 [5] = test: normalised viability (% of control), CellTiter-Blue; higher = more viable cells (about 100 = DMSO control); settings: incubation time: 72 h
Method in brief: (§3)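 Each value is normalised viability at a single listed concentration of the series. Breast cancer cell lines in 384-well plates were incubated 72 h with compound and read by CellTiter-Blue fluorescence at 560/590 nm, with vehicle set to 100 and a positive kill control to 0 on every plate.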

HDQ-P1 [6] = test: as above; settings: incubation time: 72 h
Method in brief: as §3

CAL-85-1 = test: as above; settings: incubation time: 72 h
Method in brief: as §3

HDQ-P1 [7] = settings: 72 h
Method in brief: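 Rows with a drug sensitivity score of zero were dropped, and EC50 was taken from the fitted percent-inhibition dose-response curve, censored at the highest concentration. Data were normalised on each plate to vehicle and a positive kill control and checked by Z'-factor. The assay seeded breast cancer cell lines in 20 µl onto 384-well plates pre-loaded with compound in 5 µl medium for 72 h, then added 2.5 µl CellTiter-Blue for 2 h at 37 °C and read fluorescence at 560/590 nm.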

HCC1599 = settings: 72 h
Method in brief: as §2

MFM-223 = settings: 72 h
Method in brief: as §2

CAL-120 = settings: 72 h
Method in brief: as §2

MDA-MB-436 = settings: 72 h
Method in brief: as §2

HDQ-P1 [8] = settings: 72 h; remark: listed apart in the source
Method in brief: as §2

Compound	EC50, CellTox Green (CAL-51 [1])	EC50, CellTiter-Glo (CAL-51 [3])	EC50, CellTiter-Glo (MDA-MB-468 [4])	normalised viability (CAL-51 [5])	normalised viability (HDQ-P1 [6])	normalised viability (CAL-85-1)	also measured
CN(C)C(=N)NC(=N)N [Metformin]	100 nM	360 nM	> 100000 nM				EC50, CellTox Green (MDA-MB-468 [2]): 710 nM
CC(=O)[C@]1(O)Cc2c(O)c3c(c(O)c2[C@@H](O[C@H]2C[C@H](N)[C@H](O)[C@H](C)O2)C1)C(=O)c1ccccc1C3=O [Idarubicin] (1000 nM)				1.95%	17%	6.92%	
Cn1cc(C2=C(c3cn(C4CCN(Cc5ccccn5)CC4)c4ccccc34)C(=O)NC2=O)c2ccccc21 [Enzastaurin] (10000 nM)				89.8%	78.1%	88.4%	
CC[C@H](CO)Nc1nc(NCc2ccccc2)c2ncn(C(C)C)c2n1 [Seliciclib]		595 nM					
CNC(=O)c1ccccc1Sc1ccc2c(/C=C/c3ccccn3)n[nH]c2c1 [Axitinib]	1180 nM	465 nM	3880 nM				EC50, CellTiter-Blue viability (HDQ-P1 [7]): 474 nM; EC50, CellTiter-Glo (HCC1599): 881 nM; EC50, CellTiter-Glo (MFM-223): 348 nM; EC50, CellTiter-Glo (CAL-120): 3570 nM; EC50, CellTiter-Glo (MDA-MB-436): 3040 nM; EC50, CellTiter-Glo (HDQ-P1 [8]): 4770 nM
COc1ccc(S(=O)(=O)Nc2cccnc2Nc2ccc(O)cc2)cc1 [ABT-751] (10000 nM)				6.42%	32.6%	23.6%	
